Values quoted from earlier work as cited in patent US12478593B2, “Formulations for hair growth” (JENIVISION INC., priority 2016, dated 2025).

What was measured:
[1] = Xalatan
[2] = system: eyelashes; settings: humans
[3] = system: eyelash hair follicle growth cycle; settings: mouse eyelash model

Compound | stability in aqueous solution (de-esterification) [1] | eyelash growth [2] | effect on anagen growth phase of eyelashes [3]
CC(C)OC(=O)CCC/C=C\C[C@@H]1[C@@H](CC[C@@H](O)CCc2ccccc2)[C@H](O)C[C@@H]1O [latanoprost] | facile hydrolysis |  | 
CCNC(=O)CCC/C=C\C[C@@H]1[C@@H](/C=C/[C@@H](O)CCc2ccccc2)[C@H](O)C[C@@H]1O [bimatoprost] |  | produces eyelash growth | increased entry into anagen and extension of the anagen growth phase
